Measurements taken from article PMC9763333, “In vitro characterization of immune modulating drug-eluting immunobeads towards transarterial embolization in cancer” (Scientific Reports, 2022).
Values joined by “and” are separate entries in the source; they are usually repeats but may differ in a detail not shown here. Equal entries are not always repeated. Where two headings read alike, the source gives them in different places.

Tests used:
[1] = pKa measurement by triple titration in methanol–water co-solvent with Yasuda-Shedlovsky extrapolation; assay type: physicochemical; details: for pKa: methanol–water co-solvent, aqueous value by Yasuda-Shedlovsky extrapolation; for psKa1 / psKa2 / psKa3: methanol–water
Method: pKa measurements were performed by Pion Inc, UK Ltd using known methods as previously reported[47]–[50] or calculated by using software MoKa (Molecular Discovery, Borehamwood, Hertfordshire, UK, https://www.moldiscovery.com/software/moka/#references) or directly obtained from the literature. For GARD and DSR 6434, a triple titration was carried out under methanol–water co-solvent conditions from pH 2.0–12.0 at concentrations of 2.3–1.3 mM (the methanol mixing ratio varied from 49.0 to 28.9% w/w) and 1.5–0.9 mM (the methanol mixing ratio varied from 49.6 to 29.1% w/w), respectively.

[2] = Drug release from DC Bead LUMI in saline; assay type: physicochemical; details: for release in saline from DC Bead LUMI after multiple washes in deionized water: single replicates, listed as DSR
Method: […] Briefly, drug-loaded DC Bead LUMI or LC Bead (62.5 µL) were placed in vessels with 50 mL of saline ([…], pH 7.4) and were agitated with upright rocking motion at a set maximum rocking speed of 10 (70 rpm) for 144 h at 37 °C using Ward's® Rotating Mixer. At scheduled time intervals identical to the loading time points, 1 mL of release media was withdrawn and used for drug quantification. To maintain 50 mL total elution volume, 1 mL of fresh saline pre heated to 37 °C was replaced at each timepoint. […] 2.4. The cumulative amount of drug released at each time point was calculated by multiplying the concentration of each sample aliquot by the total volume (50 mL) of release media and adding the sum of the amount of drug removed for sampling at prior time points. […] The 50 mL volume was chosen to ensure infinite sink conditions where the maximum possible concentration of eluted drug would be at least 10 times more dilute than the maximum solubility. This ensures the rate of release is not affected by solution concentration but is only a function of interactions of the bead, drug, and saline.

[3] = Drug loading into DC Bead LUMI; assay type: physicochemical; details: for Relative percent drug loaded in DC Bead LUMI over time: listed as DSR; for Relative percent drug loaded (maximum, percent of SO3− available on a molar basis): mean (n = 3)
Method: DC Bead LUMI was analyzed for its elemental composition by MEDAC Inc. […] Drug loading was performed in triplicate as previously reported[45] with slight modifications. […] Washing of beads is often a critical step in drug release studies as any drug left unbound to the beads affects the release profile and exaggerates the early burst release. […] However, washing was discontinued for TLR drugs as drug was continually observed even after multiple washes. […] The amount of drug loaded at the specified time points was calculated by subtracting the amount of drug remaining from the initial amount of drug in the loading solution and the cumulative amount of drug withdrawn for sampling. The maximum drug loaded in the beads was calculated once no further change in the concentration in the loading solution could be measured and before washing the beads. The relative percent drug loaded was defined as the maximum amount of drug loaded as a percent of the amount of SO3^- ions available in the beads on a molar basis using the following formula and the results are presented as the mean ± SD.

[4] = Washing of drug-loaded beads with deionized water and microscopic appearance; assay type: physicochemical
Method: Drug loading was performed in triplicate as previously reported[45] with slight modifications. […] Washing of beads is often a critical step in drug release studies as any drug left unbound to the beads affects the release profile and exaggerates the early burst release. […] However, washing was discontinued for TLR drugs as drug was continually observed even after multiple washes. […] The amount of drug loaded at the specified time points was calculated by subtracting the amount of drug remaining from the initial amount of drug in the loading solution and the cumulative amount of drug withdrawn for sampling. The maximum drug loaded in the beads was calculated once no further change in the concentration in the loading solution could be measured and before washing the beads. The relative percent drug loaded was defined as the maximum amount of drug loaded as a percent of the amount of SO3^- ions available in the beads on a molar basis using the following formula and the results are presented as the mean ± SD.

[5] = Drug solubilization by salt formation in acid; assay type: physicochemical; details: T in °C in parentheses in the cell (20.1 or 21.1)
Method: The base form of each drug was suspended in deionized water and titrated with 0.1 N hydrochloric acid (Fisher Scientific, Hampton, NH) while stirring until all the base was solubilized and the volume adjusted to a final concentration of 2.5 mg/mL. The resulting solution was frozen, then lyophilized to yield solid drug-hydrochloride salt or used in its solubilized form for loading into DC Bead LUMI. […] Doxorubicin.HCl was readily solubilized and used without modification. […] A ZORBAX Eclipse Plus C8 reversed-phase column (Agilent) and UV detector at wavelength of 230 nm were used for GS-9620 analysis. The decomposition product of GS-9620 was analyzed with reversed phase high-performance liquid chromatography (Rp-HPLC) and LC/MS.

[6] = set-up: method as in PMID 28188808; details: 0.08 mmol irinotecan; cited from earlier work

SMILES: CCCCNc1nc(N)c2[nH]c(=O)n(Cc3ccc(OCCN(C)C)nc3)c2n1 [DSR 6434]
- pKa ([1]; read-out: pKa (first, measured)): 4.58
- pKa ([1]; read-out: pKa (second, measured)): 8.5
- pKa ([1]; read-out: pKa (third, measured)): 9.94
- psKa1 ([1]; dielectric constant 56.6): 4.18
- psKa2 ([1]; dielectric constant 56.6): 8.14
- psKa3 ([1]; dielectric constant 56.6): 10.7073
- psKa1 ([1]; dielectric constant 61.4): 4.3
- psKa2 ([1]; dielectric constant 61.4): 8.24
- psKa3 ([1]; dielectric constant 61.4): 10.5143
- psKa1 ([1]; dielectric constant 65.9): 4.39
- psKa2 ([1]; dielectric constant 65.9): 8.34
- psKa3 ([1]; dielectric constant 65.9): 10.3389
- release in saline from DC Bead LUMI after multiple washes in deionized water ([2]; 5 min): 11.6669 mg/mL of beads and 21.0618 mg/mL of beads and 12.3038 mg/mL of beads
- release in saline from DC Bead LUMI after multiple washes in deionized water ([2]; 15 min): 12.2718 mg/mL of beads and 15.5382 mg/mL of beads and 12.6826 mg/mL of beads
- release in saline from DC Bead LUMI after multiple washes in deionized water ([2]; 30 min): 12.9372 mg/mL of beads and 16.3714 mg/mL of beads and 14.5502 mg/mL of beads
- release in saline from DC Bead LUMI after multiple washes in deionized water ([2]; 45 min): 13.4518 mg/mL of beads and 17.0028 mg/mL of beads and 14.9641 mg/mL of beads
- release in saline from DC Bead LUMI after multiple washes in deionized water ([2]; 60 min): 13.786 mg/mL of beads and 17.7202 mg/mL of beads and 15.5663 mg/mL of beads
- release in saline from DC Bead LUMI after multiple washes in deionized water ([2]; 120 min): 14.3607 mg/mL of beads and 18.3129 mg/mL of beads and 16.228 mg/mL of beads
- release in saline from DC Bead LUMI after multiple washes in deionized water ([2]; 180 min): 16.0563 mg/mL of beads and 19.309 mg/mL of beads and 16.8971 mg/mL of beads
- release in saline from DC Bead LUMI after multiple washes in deionized water ([2]; 240 min): 15.1532 mg/mL of beads and 19.1241 mg/mL of beads and 17.0694 mg/mL of beads
- release in saline from DC Bead LUMI after multiple washes in deionized water ([2]; 300 min): 15.5267 mg/mL of beads and 19.8574 mg/mL of beads and 17.3452 mg/mL of beads
- release in saline from DC Bead LUMI after multiple washes in deionized water ([2]; 360 min): 16.1146 mg/mL of beads and 19.776 mg/mL of beads and 18.2574 mg/mL of beads
- release in saline from DC Bead LUMI after multiple washes in deionized water ([2]; 420 min): 15.8596 mg/mL of beads and 19.8188 mg/mL of beads and 17.9345 mg/mL of beads
- release in saline from DC Bead LUMI after multiple washes in deionized water ([2]; 480 min): 16.4167 mg/mL of beads and 20.0149 mg/mL of beads and 17.9173 mg/mL of beads
- release in saline from DC Bead LUMI after multiple washes in deionized water ([2]; 1440 min): 16.847 mg/mL of beads and 20.6066 mg/mL of beads and 18.2918 mg/mL of beads
- release in saline from DC Bead LUMI after multiple washes in deionized water ([2]; 2880 min): 17.1212 mg/mL of beads and 20.6727 mg/mL of beads and 18.4291 mg/mL of beads
- release in saline from DC Bead LUMI after multiple washes in deionized water ([2]; 4320 min): 17.0504 mg/mL of beads and 20.4416 mg/mL of beads and 18.5897 mg/mL of beads
- release in saline from DC Bead LUMI after multiple washes in deionized water ([2]; 8640 min): 16.3092 mg/mL of beads and 19.4828 mg/mL of beads and 17.2615 mg/mL of beads
- release behaviour in saline ([2]; DC Bead LUMI): rapid release
- Relative percent drug loaded in DC Bead LUMI over time ([3]; 5 min, single replicates): 39.5677% and 47.7348% and 48.9285%
- Relative percent drug loaded in DC Bead LUMI over time ([3]; 15 min, single replicates): 41.6488% and 50.8205% and 51.9687%
- Relative percent drug loaded in DC Bead LUMI over time ([3]; 30 min, single replicates): 42.6689% and 54.1338% and 55.2332%
- Relative percent drug loaded in DC Bead LUMI over time ([3]; 45 min, single replicates): 48.2468% and 57.0357% and 58.0924%
- Relative percent drug loaded in DC Bead LUMI over time ([3]; 60 min, single replicates): 49.3314% and 55.3694% and 56.4506%
- Relative percent drug loaded in DC Bead LUMI over time ([3]; 120 min, single replicates): 50.4129% and 60.3547% and 61.3625%
- Relative percent drug loaded in DC Bead LUMI over time ([3]; 180 min, single replicates): 49.4039% and 56.8373% and 57.8969%
- Relative percent drug loaded in DC Bead LUMI over time ([3]; 240 min, single replicates): 49.4386% and 53.9704% and 55.0722%
- Relative percent drug loaded in DC Bead LUMI over time ([3]; 300 min, single replicates): 48.7119% and 56.2576% and 57.3257%
- Relative percent drug loaded in DC Bead LUMI over time ([3]; 360 min, single replicates): 47.0211% and 54.6141% and 55.7064%
- Relative percent drug loaded in DC Bead LUMI over time ([3]; 420 min, single replicates): 47.0555% and 55.952% and 57.0246%
- Relative percent drug loaded in DC Bead LUMI over time ([3]; 480 min, single replicates): 47.3643% and 55.2849% and 56.3673%
- Relative percent drug loaded in DC Bead LUMI over time ([3]; 1440 min, single replicates): 46.9195% and 55.3847% and 56.4657%
- Relative percent drug loaded in DC Bead LUMI over time ([3]; 2880 min, single replicates): 43.3022% and 55.4842% and 56.5637%
- Relative percent drug loaded in DC Bead LUMI over time ([3]; 4320 min, single replicates): 46.6711% and 54.7234% and 55.8141%
- Relative percent drug loaded in DC Bead LUMI over time ([3]; 8640 min, single replicates): 45.7549% and 53.8658% and 54.9692%
- loading behaviour ([3]; DC Bead LUMI): Fast loading
- Relative percent drug loaded (maximum, percent of SO3− available on a molar basis) ([3]; DC Bead LUMI): 57%
- Relative percent drug loaded (maximum, percent of SO3− available on a molar basis) ([3]; DC Bead LUMI, listed as DSR-6434): 57.38%
- equivalent of drug loaded to sulfonated bead ([3]; DC Bead LUMI, mean ± SD): 0.16 ± 0.02 mM drug/ml beads
- Maximum drug loaded ([3]; DC Bead LUMI, mean ± SD, n = 3, base form except Dox (salt form)): 65.95 ± 6.96 mg drug/ml beads
- Maximum drug loaded (Triplicate), % ([3]; DC Bead LUMI, single replicates): 50.4129% and 60.3547% and 61.3625%
- Drug: sulfonate ([3]; molar ratio at maximum loading, DC Bead LUMI): 0.574
- Theoretical maximum loading level based on SO3− contents ([3]; per mL DC Bead LUMI, assuming 1:1 drug to sulfonate): 114.94 mg
- removal of drug from beads by repeated washing with deionized water ([4]; DC Bead LUMI): partially removed
- aggregation of drug during washing / elution ([4]; deionized water and saline, microscopy): absence of aggregated
- pH at which each drug dissolved for loading [5]: 1.65 (20.1)

SMILES: CCc1c2c(nc3ccc(OC(=O)N4CCC(N5CCCCC5)CC4)cc13)-c1cc3c(c(=O)n1C2)COC(=O)[C@]3(O)CC [irinotecan]
- time to load drug to DC Bead LUMI [6]: ≤ 10 min
